US20240366648A1, “NAD-AUGMENTATION THERAPY FOR PARKINSON'S DISEASE” (Vestlandets Innovasjonsselskap AS (VIS), priority 2021, published 2024)

Tests used:
patients with PD = assay: Safety, adverse events and compliance, phase I trial; assay type: in vivo
Method: Thirty PD patients were randomly assigned (Block size 6, allocation 1:1) to 500 mg NR, provided in the form of nicotinamide riboside chloride (Niagen® from Chromadex), or placebo twice per day, 12 hours apart, using the electronic Case Report Form (Viedoc.com). The drug containers were sequentially marked by an independent third party. The NR (Niagen®) and placebo were provided by ChromaDex, USA. Each NR capsule contained 250 mg of NR. Placebo capsules contained microcrystalline cellulose. The vials and capsules containing NR and placebo were identical in shape, colour, and smell. Study drug compliance was calculated from counting returned number of study capsules and self-reporting. Participants, examining physicians, medical- and research personnel were blinded for the duration of the trial. Sample size was determined by comparing previous literature with respect to the primary objective.
At screening for trial entry, candidates underwent physical and neurological examination, brain MRI, and DaTscan. Eligible patients who entered the trial were assessed at baseline (visit 1, V1) and after four weeks of exposure to either NR or placebo (visit 2, V2). At both visits, patients underwent physical and neurological examination, including assessment by the Movement Disorder Society Unified Parkinson's Disease Rating Scale section I-IV (MDS-UPDRS), and biological sampling. MR-PET was performed within one week prior to visit 1, and at visit 2. All participants remained naïve for antiparkinson drugs for the duration of the trial. All clinical assessments were performed by a blinded movement disorders expert. Each patient was examined by the same neurologist at both visits. Methodological details on each procedure are provided below. Safety was monitored through routine clinical blood tests and registration of adverse events. Adverse events (AE) were recorded and scored by the investigative physician. Severity was scored according to severity grading defined by Common Terminology Criteria for Adverse Events v5.0 (CTCAE) as (1) mild, (2) moderate, (3) severe, (4) life-threatening or (5) death. The AE relation to the study drug was scored as (1) unrelated, (2) unlikely, (3) possible, (4) probable or (5) definitely.

gene expression in PBMCs = assay: RNA-seq differential gene expression in PBMCs; assay type: in vivo, human
Method: For all subjects at both visits, total RNA was extracted from muscle biopsy tissue and PBMC homogenate using RNeasy plus mini kit (Qiagen) with on-column DNase treatment according to manufacturer's protocol. The final elution was made in 45 ul of dH2O. The concentration and integrity of the total RNA were estimated by Ribogreen assay (Thermo Fisher Scientific), and Fragment Analyzer (Advanced Analytical), respectively, and 10 ng of total RNA was used for downstream RNA-seq applications using the SMARTer Stranded Total RNA-Seq Kit v2—Pico Input Mammalian Kit (IlluminaTakara Bio USA, Inc., Mountian View, CA) as per manufacturer's recommended protocol. Library quantity was assessed by Picogreen Assay (Thermo Fisher Scientific), and the library quality was estimated by utilizing a DNA High Sense chip on a Caliper Gx (Perkin Elmer). Accurate quantification of the final libraries for sequencing applications was determined using the qPCR-based KAPA Biosystems Library Quantification kit (Kapa Biosystems, Inc.). Each library pooled equimolar prior to clustering. One hundred bp paired-end sequencing was performed on an Illumina NovaSeq S4 sequencer (Illumina, Inc.). Two subjects were discarded from the PBMC samples and two from the muscle samples due to either insufficient tissue quantity, participant drop out/lack of sample, or being outliers in expression.
FASTQ files were assessed using fastQC version 0.11.9. Quantification at the transcript level was calculated using Salmon version 1.3.0 with fragment-level GC bias correction against the GENCODE version 35, with the whole genome as decoy sequence. Transcript-level quantification was collapsed onto gene-level using the tximport R package version 1.8.0. Genes in non-canonical chromosomes and scaffolds and transcripts encoded by the mitochondrial genome were filtered out, together with non-protein-coding genes. Low-expressed genes were likewise removed from downstream analyses (expression below 10 reads for 75% of the samples). PBMC and muscle datasets were analysed independently. For PBMC samples, cell type composition was assessed employing ABIS. Differential gene expression was performed using the DESeq2 R package version 1.22.2. The generalized linear model formula accounted for both interindividual variability between subjects and the normal course of the experiment (baseline for each subject and baseline for the time-course). Multiple hypothesis testing was performed with the default automatic filtering of DESeq2 followed by false discovery rate (FDR) calculation by the Benjamini-Hochberg procedure.

healthy individuals = details: cited from earlier work
rats = details: rat, in vivo; cited from earlier work

SMILES: NC(=O)c1ccc[n+]([C@@H]2O[C@H](CO)[C@@H](O)[C@H]2O)c1 [NR, nicotinamide riboside]
- CTCAE Grading: Upper Respiratory infection (patients with PD; 1 event, NR group): Grade 1 (1)
- Adverse events (n): Anorexia (patients with PD; human, in vivo, 4 weeks): 1
- Adverse events (n): Cholelithiasis (patients with PD; human, in vivo, 4 weeks): 1
- Adverse events (n): Fatigue (patients with PD; human, in vivo, 4 weeks): 1
- Adverse events (n): Headache (patients with PD; human, in vivo, 4 weeks): 3
- Adverse events (n): Hematoma (leg) (patients with PD; human, in vivo, 4 weeks): 2
- Adverse events (n): Inguinal hernia (patients with PD; human, in vivo, 4 weeks): 1
- Adverse events (n): Leg Pain (patients with PD; human, in vivo, 4 weeks): 1
- Adverse events (n): Nausea (patients with PD; human, in vivo, 4 weeks): 1
- Adverse events (n): Upper Respiratory infection (patients with PD; human, in vivo, 4 weeks): 1
- CTCAE Grading: Anorexia (patients with PD; human, in vivo, 4 weeks): Grade 1 (1)
- CTCAE Grading: Cholelithiasis (patients with PD; human, in vivo, 4 weeks): Grade 1 (1)
- CTCAE Grading: Fatigue (patients with PD; human, in vivo, 4 weeks): Grade 1 (1)
- CTCAE Grading: Headache (patients with PD; human, in vivo, 4 weeks): Grade 1 (4)
- CTCAE Grading: Inguinal hernia (patients with PD; human, in vivo, 4 weeks): Grade 1 (1)
- CTCAE Grading: Leg Pain (patients with PD; human, in vivo, 4 weeks): Grade 1 (1)
- CTCAE Grading: Nausea (patients with PD; human, in vivo, 4 weeks): Grade 1 (1)
- Causal Relationship to Study Drug: Anorexia (patients with PD; human, in vivo, 4 weeks): Unlikely (1)
- Causal Relationship to Study Drug: Cholelithiasis (patients with PD; human, in vivo, 4 weeks): Unrelated (1)
- Causal Relationship to Study Drug: Fatigue (patients with PD; human, in vivo, 4 weeks): Unlikely (1)
- Causal Relationship to Study Drug: Hematoma (leg) (patients with PD; human, in vivo, 4 weeks): Unrelated (2)
- Causal Relationship to Study Drug: Inguinal hernia (patients with PD; human, in vivo, 4 weeks): Unrelated (1)
- Causal Relationship to Study Drug: Leg Pain (patients with PD; human, in vivo, 4 weeks): Unrelated (1)
- Causal Relationship to Study Drug: Nausea (patients with PD; human, in vivo, 4 weeks): Unlikely (1)
- Causal Relationship to Study Drug: Upper Respiratory infection (patients with PD; human, in vivo, 4 weeks): Unlikely (1)
- severity and relatedness of reported adverse events (patients with PD; in vivo): minor and considered to be unrelated to NR
- subjects reporting adverse events (patients with PD; in vivo): Seven
- BLOC1S2 expression in PBMCs (gene expression in PBMCs; NR vs placebo): upregulation
- functional enrichment in PBMCs: ribosomal, proteasomal, lysosomal and mitochondrial (oxidative phosphorylation) pathways (gene expression in PBMCs; NR vs placebo): highly significant upregulation
- genes encoding known NAD biosynthetic enzymes including NMRK1 (gene expression in PBMCs; NR vs placebo): No significant changes
- number of genes significantly associated with NR supplementation in PBMCs (gene expression in PBMCs; NR vs placebo): 13 genes
- Direction of pathway enrichment (MitoCarta v3.0): mtRNA metabolism (gene expression in PBMCs; P 0.003136, corrected P 0.13170171): DOWN
- Direction of pathway enrichment (MitoCarta v3.0): mt-tRNA modifications (gene expression in PBMCs; P 0.009994, corrected P 0.209874): DOWN
- Direction of pathway enrichment (MitoCarta v3.0): Cl assembly factors (gene expression in PBMCs; P 0.013122, corrected P 0.183708): DOWN
- Direction of pathway enrichment (MitoCarta v3.0): mtRNA granules (gene expression in PBMCs; P 0.018336, corrected P 0.192528): DOWN
- Direction of pathway enrichment (MitoCarta v3.0): Vitamin metabolism (gene expression in PBMCs; P 0.02605831, corrected P 0.21888977): DOWN
- Direction of pathway enrichment (MitoCarta v3.0): Mitochondrial ribosome assembly (gene expression in PBMCs; P 0.027256, corrected P 0.190792): DOWN
- Direction of pathway enrichment (MitoCarta v3.0): mt-tRNA synthetases (gene expression in PBMCs; P 0.03548, corrected P 0.21288): DOWN
- Direction of pathway enrichment (MitoCarta v3.0): OXPHOS assembly factors (gene expression in PBMCs; P 0.04239743, corrected P 0.2225865): DOWN
- association with estimated cell type proportions in PBMC samples (gene expression in PBMCs; p>0.5): did not show a significant association
- oral bioavailability in humans (healthy individuals; Trammell et al. 2016): good oral bioavailability
- total levels of NAD and related metabolites in blood and muscle (healthy individuals; healthy individuals, oral 1000 mg NR daily): substantially elevates
- non-lethal oral dose (rats): ≥ 5000 mg/kg
